Experimental data: US6552014B2, “Methods of inhibiting platelet activation with selective serotonin reuptake inhibitors” (HeartDrug Research, L.L.C., priority 1999, dated 2003)

Tests used:
Experiment in all cases: Flow cytometry of platelet antigen expression, platelet rich plasma
Format in all cases: cell-based, human
CD9 = conditions: for CD9 (mean) log fluorescence intensity / CD9 (peak) log fluorescence intensity: PRP
Text: (§1) For ex vivo assessment of the SSRIs effect on a PAM, a level of a PAM can be assessed by flow cytometry by first obtaining a sample that comprises platelets and then contacting the sample with a platelet activation agonist, such as phorbol myristate acetate (PMA), ADP (adenosine diphosphate), thrombin, collagen, and/or TRAP (thrombin receptor activating peptide), under conditions suitable for activation of platelets in the sample. The sample is in contact with the agonist preferably for a period of time effective to maximally activate the platelets. […] NDMS at 31.1, 64.1 or 143 ng./ml). Then one contacts or stains the samples with a composition that comprises an anti-PAM antibody e.g., having a fluorescent label, preferably in an amount in excess of that required to bind the PAM expressed on the platelets, under conditions suitable for the formation of labeled complexes between the anti-PAM antibody and activated platelets. Then the formation of the complex in the sample is determined (detected or measured). […] The blood-ACD mixture was centrifuged at 1000 r.p.m. for 10 minutes at room temperature. […] The PRP was then centrifuged at 3000 r.p.m. for 10 minutes. […] All cells were then divided into ten plastic capped tubes. Nine portions of washed platelets were incubated with 5 μfluorescein isothiocyanate (FITC)-conjugated antibodies in the dark at +4 °C for 30 minutes, and one part remained unstained and served as a negative control. Surface antigen expression was measured with monoclonal murine anti-human antibodies: CD9 (p24); CD41a (IIb/IIIa, aIIIbb3); CD42b (Ib); CD61(IIIa) (DAKO Corporation, Carpinteria Calif.); CD49b (VLA-2, or a2b1); CD62p (P-selectin); CD31 (PECAM-1); […] The instrument was calibrated daily with fluorescence beads (CaliBRITE; Becton Dickinson) and measured FITC-conjugated fluorescence intensity. All parameters were obtained using four decade logarithmic amplification. The data was collected and stored in list mode, and then analyzed using CELLQuest® (version 1.2.2) software. Procedures are described in detail in (Gurbel, P. […] Serebruany, V. […] Gurbel, P. A. et al., Coron Artery Dis 9: 451-456 (1998) and Serebruany, V. L. et al., Arterioscl Thromb Vasc Biol 19: 153-158 (1999)). The data in table 1 was obtained using the methods described herein, and in particular, in Examples 1 and 2. The levels of various PAMs were assess from samples of human volunteers.

CPIa-IIa = conditions: for CPIa-IIa (mean) log fluorescence intensity / CPIa-IIa (peak) log fluorescence intensity: PRP
Text: as §1

GP IIIa = conditions: PRP
Text: as §1

GP IIb/IIIa = conditions: for GP IIb/IIIa (mean) log fluorescence intensity / GP IIb/IIIa (peak) log fluorescence intensity: PRP
Text: as §1

GP IIb = conditions: PRP
Text: as §1

GP Ib = conditions: for GP Ib (mean) log fluorescence intensity / GP Ib (peak) log fluorescence intensity: PRP
Text: as §1

PECAM-1 = conditions: for PECAM-1 (mean) log fluorescence intensity / PECAM-1 (peak) log fluorescence intensity: PRP
Text: as §1

[1] = healthy volunteers, sertraline 18.1 ng/ml
[2] = healthy volunteers, sertraline 44.7 ng/ml
[3] = healthy volunteers, sertraline 85.3 ng/ml
[4] = post-angioplasty patient on aspirin, sertraline 18.1 ng/ml
[5] = post-angioplasty patient on aspirin, sertraline 44.7 ng/ml
[6] = post-angioplasty patient on aspirin, sertraline 85.3 ng/ml
[7] = plasma concentration 85.3 ng/ml, equivalent to 200 mg/daily

CN[C@H]1CC[C@@H](c2ccc(Cl)c(Cl)c2)c2ccccc21 [sertraline]
CD9 (mean) log fluorescence intensity (CD9; [1]): 948 | CD9 (peak) log fluorescence intensity (CD9; [1]): 938 | CD9 (mean) log fluorescence intensity (CD9; [2]): 905 | CD9 (peak) log fluorescence intensity (CD9; [2]): 777 | CD9 (mean) log fluorescence intensity (CD9; [3]): 742 | CD9 (peak) log fluorescence intensity (CD9; [3]): 716 | CD9 (mean) log fluorescence intensity (CD9; [4]): 949 | CD9 (peak) log fluorescence intensity (CD9; [4]): 1027 | CD9 (mean) log fluorescence intensity (CD9; [5]): 1015 | CD9 (peak) log fluorescence intensity (CD9; [5]): 850 | CD9 (mean) log fluorescence intensity (CD9; [6]): 984 | CD9 (peak) log fluorescence intensity (CD9; [6]): 964 | surface expression of CD9 (p24), in words (CD9; [7]): diminished surface expression | CPIa-IIa (mean) log fluorescence intensity (CPIa-IIa; [1]): 51 | CPIa-IIa (peak) log fluorescence intensity (CPIa-IIa; [1]): 47 | CPIa-IIa (mean) log fluorescence intensity (CPIa-IIa; [2]): 49 | CPIa-IIa (peak) log fluorescence intensity (CPIa-IIa; [2]): 37 | CPIa-IIa (mean) log fluorescence intensity (CPIa-IIa; [3]): 35 | CPIa-IIa (peak) log fluorescence intensity (CPIa-IIa; [3]): 30 | CPIa-IIa (mean) log fluorescence intensity (CPIa-IIa; [4]): 63 | CPIa-IIa (peak) log fluorescence intensity (CPIa-IIa; [4]): 55 | CPIa-IIa (mean) log fluorescence intensity (CPIa-IIa; [5]): 70 | CPIa-IIa (peak) log fluorescence intensity (CPIa-IIa; [5]): 60 | CPIa-IIa (mean) log fluorescence intensity (CPIa-IIa; [6]): 67 | CPIa-IIa (peak) log fluorescence intensity (CPIa-IIa; [6]): 60 | surface expression of very late antigen-2 (VLA-2, or GPIb-IIa), in words (CPIa-IIa; [7]): diminished surface expression | GP IIIa (mean) log fluorescence intensity (GP IIIa; [1]): 1389 | GP IIIa (peak) log fluorescence intensity (GP IIIa; [1]): 1197 | GP IIIa (mean) log fluorescence intensity (GP IIIa; [2]): 1197 | GP IIIa (peak) log fluorescence intensity (GP IIIa; [2]): 1084 | GP IIIa (mean) log fluorescence intensity (GP IIIa; [3]): 816 | GP IIIa (peak) log fluorescence intensity (GP IIIa; [3]): 704 | GP IIIa (mean) log fluorescence intensity (GP IIIa; [4]): 1247 | GP IIIa (peak) log fluorescence intensity (GP IIIa; [4]): 1114 | GP IIIa (mean) log fluorescence intensity (GP IIIa; [5]): 1404 | GP IIIa (peak) log fluorescence intensity (GP IIIa; [5]): 1370 | GP IIIa (mean) log fluorescence intensity (GP IIIa; [6]): 1321 | GP IIIa (peak) log fluorescence intensity (GP IIIa; [6]): 1310 | GP IIb/IIIa expression, flow cytometric graph (FIG. 9), in words (GP IIb/IIIa; 44.7, 85.3 ng/mL of sertraline): dose dependent decrease in the expression | GP IIb/IIIa (mean) log fluorescence intensity (GP IIb/IIIa; [1]): 1038 | GP IIb/IIIa (peak) log fluorescence intensity (GP IIb/IIIa; [1]): 991 | GP IIb/IIIa (mean) log fluorescence intensity (GP IIb/IIIa; [2]): 748 | GP IIb/IIIa (peak) log fluorescence intensity (GP IIb/IIIa; [2]): 518 | GP IIb/IIIa (mean) log fluorescence intensity (GP IIb/IIIa; [3]): 533 | GP IIb/IIIa (peak) log fluorescence intensity (GP IIb/IIIa; [3]): 421 | GP IIb/IIIa (mean) log fluorescence intensity (GP IIb/IIIa; [4]): 911 | GP IIb/IIIa (peak) log fluorescence intensity (GP IIb/IIIa; [4]): 679 | GP IIb/IIIa (mean) log fluorescence intensity (GP IIb/IIIa; [5]): 962 | GP IIb/IIIa (peak) log fluorescence intensity (GP IIb/IIIa; [5]): 798 | GP IIb/IIIa (mean) log fluorescence intensity (GP IIb/IIIa; [6]): 1035 | GP IIb/IIIa (peak) log fluorescence intensity (GP IIb/IIIa; [6]): 922 | surface expression of glycoprotein IIb/IIIa complex (GP IIb/IIIa), in words (GP IIb/IIIa; [7]): diminished surface expression | GP IIb (mean) log fluorescence intensity (GP IIb; [1]): 31 | GP IIb (peak) log fluorescence intensity (GP IIb; [1]): 26 | GP IIb (mean) log fluorescence intensity (GP IIb; [2]): 31 | GP IIb (peak) log fluorescence intensity (GP IIb; [2]): 35 | GP IIb (mean) log fluorescence intensity (GP IIb; [3]): 30 | GP IIb (peak) log fluorescence intensity (GP IIb; [3]): 22 | GP IIb (mean) log fluorescence intensity (GP IIb; [4]): 30 | GP IIb (peak) log fluorescence intensity (GP IIb; [4]): 29 | GP IIb (mean) log fluorescence intensity (GP IIb; [5]): 27 | GP IIb (peak) log fluorescence intensity (GP IIb; [5]): 31 | GP IIb (mean) log fluorescence intensity (GP IIb; [6]): 37 | GP IIb (peak) log fluorescence intensity (GP IIb; [6]): 34 | GPIb expression, flow cytometric graph (FIG. 8), in words (GP Ib; 18.1, 44.7 or 85.5 ng/mL of sertraline): dose dependent decrease in the expression | GP Ib (mean) log fluorescence intensity (GP Ib; [1]): 139 | GP Ib (peak) log fluorescence intensity (GP Ib; [1]): 125 | GP Ib (mean) log fluorescence intensity (GP Ib; [2]): 97 | GP Ib (peak) log fluorescence intensity (GP Ib; [2]): 74 | GP Ib (mean) log fluorescence intensity (GP Ib; [3]): 65 | GP Ib (peak) log fluorescence intensity (GP Ib; [3]): 67 | GP Ib (mean) log fluorescence intensity (GP Ib; [4]): 324 | GP Ib (peak) log fluorescence intensity (GP Ib; [4]): 305 | GP Ib (mean) log fluorescence intensity (GP Ib; [5]): 220 | GP Ib (peak) log fluorescence intensity (GP Ib; [5]): 257 | GP Ib (mean) log fluorescence intensity (GP Ib; [6]): 182 | GP Ib (peak) log fluorescence intensity (GP Ib; [6]): 186 | surface expression of GPIb, in words (GP Ib; [7]): diminished surface expression | PECAM-1 expression, flow cytometric graph (FIG. 10), in words (PECAM-1; 44.7, 85.3 ng/mL of sertraline): dose dependent decrease in the expression | PECAM-1 (mean) log fluorescence intensity (PECAM-1; [1]): 117 | PECAM-1 (peak) log fluorescence intensity (PECAM-1; [1]): 88 | PECAM-1 (mean) log fluorescence intensity (PECAM-1; [2]): 104 | PECAM-1 (peak) log fluorescence intensity (PECAM-1; [2]): 71 | PECAM-1 (mean) log fluorescence intensity (PECAM-1; [3]): 84 | PECAM-1 (peak) log fluorescence intensity (PECAM-1; [3]): 66 | PECAM-1 (mean) log fluorescence intensity (PECAM-1; [4]): 94 | PECAM-1 (peak) log fluorescence intensity (PECAM-1; [4]): 76 | PECAM-1 (mean) log fluorescence intensity (PECAM-1; [5]): 99 | PECAM-1 (peak) log fluorescence intensity (PECAM-1; [5]): 98 | PECAM-1 (mean) log fluorescence intensity (PECAM-1; [6]): 97 | PECAM-1 (peak) log fluorescence intensity (PECAM-1; [6]): 93 | surface expression of PECAM-1, in words (PECAM-1; [7]): diminished surface expression
